Experimental data taken from patent US20250195478A1, “DUAL INHIBITORS OF VISTA AND PD-1 PATHWAYS” (Aurigene Oncology Limited, priority 2016, published 2025).

Experiments:
[1] = molecular target: T1, Recombinant mouse PD-L1 (Mus musculus, UniProt Q9EP73); assay: Rescue of mouse splenocyte proliferation in the presence of recombinant PD-L1 (CFSE proliferation assay); format: cell-based; conditions: 100 nM compound; anti-CD3/CD28 stimulated mouse splenocytes + PD-L1; 72 h; stimulated splenocytes = 100%; read-out: PDL1 (rescue of proliferation @ 100 nM)
T1 construct: Fc (Fc chimera); purchased R&D Systems 1019-B7-100
T1 sequence (Q9EP73 19-238 limits assumed): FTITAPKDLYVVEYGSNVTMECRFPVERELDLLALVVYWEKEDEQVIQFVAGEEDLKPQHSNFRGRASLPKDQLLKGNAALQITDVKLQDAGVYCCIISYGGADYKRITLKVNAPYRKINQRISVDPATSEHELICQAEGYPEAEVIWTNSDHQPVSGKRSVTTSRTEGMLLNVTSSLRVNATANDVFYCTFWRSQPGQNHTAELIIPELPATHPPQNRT
Protocol: Example 1: Rescue of Mouse Splenocyte Proliferation in the Presence of Recombinant PD-L1/PD-L2
Recombinant mouse PD-L1 (rm-PDL-1, cat no: 1019-B7-100; R&D Systems) were used as the source of PD-L1.
Mouse splenocytes harvested from 6-8 weeks old C57 BL6 mice; RPMI 1640 (GIBCO, Cat #11875); DMEM with high glucose (GIBCO, Cat #D6429); Fetal Bovine Serum [Hyclone, Cat #SH30071.03]; Penicillin (10000unit/mL)-Streptomycin (10,000 μg/mL) Liquid (GIBCO, Cat #15140-122); MEM Sodium Pyruvate solution 100 mM (100×), Liquid (GIBCO, Cat #11360); Nonessential amino acid (GIBCO, Cat #11140); L-Glutamine (GIBCO, Cat #25030); Anti-CD3 antibody (eBiosciences-16-0032); Anti-CD28 antibody (eBiosciences-16-0281); ACK lysis buffer (1mL) (GIBCO, Cat #-A10492); Histopaque (density-1.083 gm/mL) (SIGMA 10831); Trypan blue solution (SIGMA-T8154); 2 mL Norm Ject Luer Lock syringe-(Sigma 2014-12); 40 μm nylon cell strainer (BD FALCON 35230); Hemacytometer (Bright line-SIGMA Z359629); FACS Buffer (PBS/0.1% BSA): Phosphate Buffered Saline (PBS) pH 7.2 (HiMedia TS1006) with 0.1% Bovine Serum Albumin (BSA) (SIGMA A7050) and sodium azide (SIGMA 08591); 5 mM stock solution of CFSE: CFSE stock solution was prepared by diluting lyophilized CFSE with 180 μL of Dimethyl sulfoxide (DMSO C2H6SO, SIGMA-D-5879) and aliquoted in to tubes for further use. Working concentrations were titrated from 10 μM to 1 μM. (eBioscience-650850-85); 0.05% Trypsin and 0.02% EDTA (SIGMA 59417C); 96-well format ELISA plates (Corning CLS3390); BD FACS caliber (E6016);
Recombinant mouse B7-H1/PDL1 Fc Chimera, (rm-PD-L1 cat no: 1019-B7-100).
Splenocytes harvested in a 50 mL falcon tube by mashing mouse spleen in a 40 μm cell strainer were further treated with 1 mL ACK lysis buffer for 5 min at room temperature.
After washing with 9 mL of RPMI complete media, cells were re-suspended in 3 mL of 1×PBS in a 15 mL tube. 3 mL of Histopaque was added carefully to the bottom of the tube without disturbing overlaying splenocyte suspension. After centrifuging at 800×g for 20 min at room temperature, the opaque layer of splenocytes was collected carefully without disturbing/mixing the layers. Splenocytes were washed twice with cold 1×PBS followed by total cell counting using Trypan Blue exclusion method and used further for cell based assays.
Splenocytes were cultured in RPMI complete media (RPMI +10% fetal bovine serum+1 mM sodium pyruvate+10,000units/mL penicillin and 10,000 μg/mL streptomycin) and maintained in a CO2 incubator with 5% CO2 at 37° C.
CFSE is a dye that passively diffuses into cells and binds to intracellular proteins. 1×10^6 cells/mL of harvested splenocytes were treated with 5 μM of CFSE in pre-warmed 1×PBS/0.1% BSA solution for 10 min at 37° C. Excess CFSE was quenched using 5 volumes of ice-cold culture media to the cells and incubated on ice for 5 min. CFSE labelled splenocytes were further given three washes with ice cold complete RPMI media. CFSE labelled 1×10^5 splenocytes added to wells containing either MDA-MB231 cells (1×10^5 cells cultured in high glucose DMEM medium) or recombinant […] PDL-1 (100 ng/mL) and test compounds. Splenocytes were stimulated with anti-mouse CD3 and anti-mouse CD28 antibody (lug/mL each), and the culture was further incubated for 72 h at 37° C. with 5% CO2. Cells were harvested and washed thrice with ice cold FACS buffer and % proliferation was analysed by flow cytometry with 488 nm excitation and 521 nm emission filters.
Percent splenocyte proliferation was analysed using cell quest FACS program and percent rescue of splenocyte proliferation by compound was estimated after deduction of % background proliferation value and normalising to % stimulated splenocyte proliferation (positive control) as 100%.
Stimulated splenocytes: Splenocytes+anti-CD3/CD28 stimulation
Background proliferation: Splenocytes+anti-CD3/CD28+PD-L1
Compound proliferation: Splenocytes+anti-CD3/CD28+PD-L1+Compound […]

[2] = molecular target: T2, recombinant human VISTA (Homo sapiens, UniProt Q9H7M9); assay: Human PBMC IFN-γ release assay in the presence of recombinant human VISTA; format: cell-based; conditions: 100 nM compound, plate-coated VISTA + anti-CD3, anti-CD28, 72 h, ELISA
T2 construct: Fc (Fc chimera); purchased R&D Systems 7126-B7
T2 sequence (Q9H7M9 with tags, fused parts or gaps limits assumed): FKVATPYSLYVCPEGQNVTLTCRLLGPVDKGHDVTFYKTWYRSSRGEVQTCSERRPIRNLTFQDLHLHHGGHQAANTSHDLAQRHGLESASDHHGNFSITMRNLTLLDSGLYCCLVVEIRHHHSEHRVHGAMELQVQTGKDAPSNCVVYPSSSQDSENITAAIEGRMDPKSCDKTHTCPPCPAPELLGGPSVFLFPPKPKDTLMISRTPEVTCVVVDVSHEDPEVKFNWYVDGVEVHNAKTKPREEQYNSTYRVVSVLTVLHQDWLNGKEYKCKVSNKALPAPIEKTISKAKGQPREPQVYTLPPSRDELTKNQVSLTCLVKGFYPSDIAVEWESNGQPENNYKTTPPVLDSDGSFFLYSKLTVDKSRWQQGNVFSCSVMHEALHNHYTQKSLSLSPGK
Protocol: Example 2: Rescue of Mouse Splenocyte Proliferation in the Presence of Recombinant VISTA
Vehicle: Milli Q water; RPMI 1640 (GIBCO, Cat #11875); Fetal Bovine Serum [Hyclone, Cat #SH30071.03]; Penicilin (10000 unit/ml)-Streptomycin (10,000 μg/ml) liquid (GIBCO, Cat #15140-122); MEM Sodium Pyruvate solution 100 mM (100×), Liquid (GIBCO, Cat #11360); Nonessential amino acid (GIBCO, Cat #11140); L-Glutamine (GIBCO, Cat #25030); Recombinant human VISTA (rhGi24 VISTA/B7-H5 Fc chimera (R&D systems, cat no: 7126-B7); Anti-h/m Gi24/VISTA/B7-H5 purified mouse monoclonal IgG2B (R&D systems, cat no: MAB7126); Mouse IgG2B isotype control (R&D Systems cat no: MAB 004); Anti human-CD3 antibody (eBiosciences-16-0039); Anti human-CD28 antibody (eBiosciences-16-0289); Histopaque (density-1.077 gm/ml) (SIGMA 1077); Trypan Blue solution (SIGMA-T8154); Hemacytometer (Bright line-SIGMA Z359629); FACS Buffer containing Phosphate Buffered Saline (PBS) pH 7.2; (HiMedia TS1006) with 0.1% Bovine Serum Albumin (BSA) (SIGMA A7050) and sodium azide (SIGMA 08591); 96-well format ELISA plates (Corning 3599); 96-well format ELISA plates (Corning 3361); BD FACS caliber (E6016); Centrifuge (Eppendorf 5810 R); Human IFN-γ Duo set ELISA kit (R&D Systems; cat no: DY-285).
96-well cell culture plates were pre-coated with recombinant human VISTA (2.5 μg/ml) and anti-human CD3 (2.5 μg/ml), and stored at 4° C. overnight. Anti-human VISTA and isotype control antibodies were either coated along with the VISTA or incubated for 30 min next day before addition of cells. On the next day, plates were washed with 1×PBS and then incubated with test compounds for 30 min. Isolated PBMC (0.1×10^6 cells/well) and anti-human CD28 antibodies (lug/ml) were added to the wells. The culture was further incubated for 72 h at 37° C. with 5% CO2. After 72 h of incubation the cell culture supernatants were collected after brief centrifugation at 200 g×5 min at 4° C. and processed for human IFN-γ measurement by ELISA following manufacturer's protocol (R&D Systems; DY-285).
In brief, 96-well ELISA plates were coated with 100 μl/well of capture antibody in coating buffer and incubated overnight at 4° C. Plates were washed five times with wash buffer and further blocked with 200 μl of 1× assay diluents for 1 hr at RT. Following wash step, 100 μl of cell culture supernatants were added to wells and further incubated for 2 hr at RT. Appropriate standards were also included. After wash step, plate was incubated for one hour with 100 μl/well of detection antibody. The wash step was repeated and the plate was incubated for 30 min with 100 μl/well of Avidin-HRP. The plate was washed four times with wash buffer and subsequently incubated for 15 min with 100 μl/well of substrate solution. 50 μl of stop solution was added to each well and the plate was read at 450 nm using Gen5 ver 2.05. Delta OD values were used for calculating the concentrations. The absorbance values were plotted against the standards and the concentration of IFN-γ was determined using GraphPad Prism software. Each experimental condition was carried out in triplicates.
The percent rescue of IFN-γ release of the selected compounds of present invention are set forth below wherein “A” refers to compounds having more than 70% rescue of IFN-γ release, “B” refers to compounds having rescue of IFN-γ release ranges from 50% to 69.9% and “C” refers to compounds having less than 50% rescue of IFN-γ release.

| SMILES | activation at 0.1 µM [1] [%] | VISTA (rescue of IFN γ release @ 100 nM) [2] |
| --- | --- | --- |
| CC(O)[C@H](NC(=O)N[C@@H](CC(N)=O)c1nc([C@@H](N)CO)no1)C(=O)O (some centres unmarked) [Compound 1] | 97 | A (more than 70% rescue of IFN-γ release) |
| CC(O)[C@H](NC(=O)N[C@@H](CC(N)=O)c1nc([C@@H](N)C(C)O)no1)C(=O)O (some centres unmarked) [Compound 2] | 75 | A (more than 70% rescue of IFN-γ release) |
| N[C@@H](CO)c1noc([C@H](CC(=O)O)NC(=O)N[C@@H](CO)C(=O)O)n1 [Compound 3] | 91 | C (less than 50% rescue of IFN-γ release) |
| NCCCC[C@H](NC(=O)N[C@@H](CC(N)=O)c1nc([C@@H](N)CO)no1)C(=O)O [Compound 4] | – | B (rescue of IFN-γ release ranges from 50% to 69.9%) |
| CC(O)[C@H](NC(=O)N[C@@H](CC(N)=O)c1nc([C@@H](N)Cc2ccc(O)cc2)no1)C(=O)O (some centres unmarked) [Compound 5] | – | A (more than 70% rescue of IFN-γ release) |
| CN[C@@H](CO)c1noc([C@H](CC(N)=O)NC(=O)N[C@H](C(=O)O)C(C)O)n1 (some centres unmarked) [Compound 6] | 63 | C (less than 50% rescue of IFN-γ release) |
| CC(O)[C@H](NC(=O)N[C@@H](CC(N)=O)c1nc([C@@H](N)CCCCN)no1)C(=O)O (some centres unmarked) [Compound 7] | 96 | C (less than 50% rescue of IFN-γ release) |
| CC(O)[C@H](NC(=O)N[C@@H](Cc1cc2ccccc2[nH]1)c1nc([C@@H](N)CO)no1)C(=O)O (some centres unmarked) [Compound 8] | 60 | B (rescue of IFN-γ release ranges from 50% to 69.9%) |
| CC(O)[C@H](NC(=O)N[C@H](c1nc([C@@H](N)CO)no1)C(C)C)C(=O)O (some centres unmarked) [Compound 9] | – | C (less than 50% rescue of IFN-γ release) |
| CCCCCCNC(=O)C[C@H](NC(=O)N[C@H](C(=O)O)C(C)O)c1nc([C@@H](N)CO)no1 (some centres unmarked) [Compound 10] | – | C (less than 50% rescue of IFN-γ release) |
| CCC(C)[C@H](NC(=O)N[C@@H](CCC(=O)O)C(=O)O)c1nc([C@@H](N)CCC(N)=O)no1 (some centres unmarked) [Compound 11] | – | C (less than 50% rescue of IFN-γ release) |
| NCCCC[C@H](N)c1noc([C@H](CCC(N)=O)NC(=O)N[C@@H](CO)C(=O)O)n1 [Compound 12] | – | B (rescue of IFN-γ release ranges from 50% to 69.9%) |
| N[C@@H](CO)c1noc([C@H](CO)NC(=O)N[C@@H](CO)C(=O)O)n1 [Compound 13] | – | B (rescue of IFN-γ release ranges from 50% to 69.9%) |
| N[C@@H](Cc1cnc[nH]1)c1noc([C@H](CC(=O)O)NC(=O)N[C@@H](CO)C(=O)O)n1 [Compound 14] | 59 | B (rescue of IFN-γ release ranges from 50% to 69.9%) |
| CC(O)[C@H](NC(=O)N[C@@H](CC(=O)O)c1nc([C@@H](N)CCCNC(=N)N)no1)C(=O)O (some centres unmarked) [Compound 15] | 70 | C (less than 50% rescue of IFN-γ release) |
| N=C(N)NCCC[C@H](N)c1noc([C@H](CC(=O)O)NC(=O)N[C@@H](CO)C(=O)O)n1 [Compound 16] | – | B (rescue of IFN-γ release ranges from 50% to 69.9%) |
| CC(=O)NCCCC[C@@H](NC(=O)N[C@H](C(=O)O)C(C)O)c1nc([C@@H](N)CO)no1 (some centres unmarked) [Compound 17] | – | C (less than 50% rescue of IFN-γ release) |
| CCCCCCNC(=O)CC[C@H](NC(=O)N[C@H](C(=O)O)C(C)O)c1nc([C@@H](N)CO)no1 (some centres unmarked) [Compound 18] | – | C (less than 50% rescue of IFN-γ release) |
| CC(O)[C@@H](NC(=O)N[C@@H](CC(N)=O)c1nc([C@@H](N)CO)no1)C(=O)O (some centres unmarked) [Compound 20] | – | A (more than 70% rescue of IFN-γ release) |
| CC(O)[C@H](NC(=O)N[C@@H](CC(N)=O)c1nc(C2(N)CCCC2)no1)C(=O)O (some centres unmarked) [Compound 25] | – | C (less than 50% rescue of IFN-γ release) |
| CCC(C)[C@H](NC(=O)N[C@H](C(=O)O)[C@@H](C)O)c1nc([C@@H](N)CO)no1 (some centres unmarked) [Compound 27] | – | A (more than 70% rescue of IFN-γ release) |
